From ChEMBL document CHEMBL5338710, “Discovery of dearomatized isoprenylated acylphloroglucinols with colon tumor suppressive activities in mice via inhibiting NFκB-FAT1-PDCD4 signaling activation” (Eur J Med Chem, 2022) come the findings set out here.

SMILES strings stand for the structures. The source made the active and inactive calls. The calls are words filed in the database; no cut-off is given here. A value given as a limit tells only on which side of the number the result lay.

Data set [1] deals with HCT-116. The data set can be described thus: Antiproliferative activity against human HCT-116 cells assessed as reduction in cell viability at 5 uM measured after 48 hrs by MTT assay. The format is functional, cell-based. Background: Formazan colour is commonly taken as a measure of viable cells.
For data set [2], the system named is HCT-116. The experiment in a line: Antiproliferative activity against human HCT-116 cells assessed as reduction in cell viability measured after 48 hrs by MTT assay. The format is functional, cell-based. To be noted: HCT-116, 48 h.
A short description of data set [3]: Antiproliferative activity against human PBMC cells assessed as reduction in cell viability measured after 48 hrs by MTT assay. The format is toxicity, cell-based.
The target of data set [4] is Nuclear factor NF-kappa-B complex (Homo sapiens) (UniProt Q00653+P19838+Q04206). The data set can be described thus: Inhibition of TNFalpha induced-NFkB phosphorylation in human HCT-116 cells at 1 to 5 uM pretreated for 24 hrs followed by TNFalpha induction and measured after 24 hrs by Western blot analysis. The format is cell-based. To be noted: dose 1-5 µM, time 48.0 hrs.

Data set [5] deals with HCT-116. The data set can be described thus: Antitumor activity against human HCT-116 cells xenografted in nude mouse assessed as decrease in tumor volume at 3 to 4 mg/kg, iv measured for 23 days in presence of oxaliplatin. The conditions noted are these: dose 3-4 mg/kg, time 23.0 day. The format is functional, organism-based. Background: A xenograft is tissue or cells of one species grown in another, often human tumour cells in immunodeficient mice.

Data set [6] relates to HCT-116. The data set can be described thus: Antitumor activity against human HCT-116 cells xenografted in nude mouse assessed as decrease in tumor volume at 25 mg/kg, iv measured upto 23 days in presence of oxaliplatin. The format is functional, organism-based. To be noted: time <= 23.0 day.
The test system of data set [7] is HCT-116. The experiment in a line: Antitumor activity against human HCT-116 cells xenografted in nude mouse assessed as decrease in tumor weight at 25 mg/kg, iv measured upto 23 days in presence of oxaliplatin. The format is functional, organism-based. The conditions noted are these: time <= 23.0 day.
The test system of data set [8] is HCT-116. The experiment in a line: Antitumor activity against human HCT-116 cells xenografted in nude mouse assessed as reduction in tumor weight at 3 to 4 mg/kg, iv measured for 23 days in presence of oxaliplatin. To be noted: dose 3-4 mg/kg, time 23.0 day. The format is functional, organism-based.

Chain of Nuclear factor NF-kappa-B complex (Homo sapiens) (P19838 whole entry, looked up): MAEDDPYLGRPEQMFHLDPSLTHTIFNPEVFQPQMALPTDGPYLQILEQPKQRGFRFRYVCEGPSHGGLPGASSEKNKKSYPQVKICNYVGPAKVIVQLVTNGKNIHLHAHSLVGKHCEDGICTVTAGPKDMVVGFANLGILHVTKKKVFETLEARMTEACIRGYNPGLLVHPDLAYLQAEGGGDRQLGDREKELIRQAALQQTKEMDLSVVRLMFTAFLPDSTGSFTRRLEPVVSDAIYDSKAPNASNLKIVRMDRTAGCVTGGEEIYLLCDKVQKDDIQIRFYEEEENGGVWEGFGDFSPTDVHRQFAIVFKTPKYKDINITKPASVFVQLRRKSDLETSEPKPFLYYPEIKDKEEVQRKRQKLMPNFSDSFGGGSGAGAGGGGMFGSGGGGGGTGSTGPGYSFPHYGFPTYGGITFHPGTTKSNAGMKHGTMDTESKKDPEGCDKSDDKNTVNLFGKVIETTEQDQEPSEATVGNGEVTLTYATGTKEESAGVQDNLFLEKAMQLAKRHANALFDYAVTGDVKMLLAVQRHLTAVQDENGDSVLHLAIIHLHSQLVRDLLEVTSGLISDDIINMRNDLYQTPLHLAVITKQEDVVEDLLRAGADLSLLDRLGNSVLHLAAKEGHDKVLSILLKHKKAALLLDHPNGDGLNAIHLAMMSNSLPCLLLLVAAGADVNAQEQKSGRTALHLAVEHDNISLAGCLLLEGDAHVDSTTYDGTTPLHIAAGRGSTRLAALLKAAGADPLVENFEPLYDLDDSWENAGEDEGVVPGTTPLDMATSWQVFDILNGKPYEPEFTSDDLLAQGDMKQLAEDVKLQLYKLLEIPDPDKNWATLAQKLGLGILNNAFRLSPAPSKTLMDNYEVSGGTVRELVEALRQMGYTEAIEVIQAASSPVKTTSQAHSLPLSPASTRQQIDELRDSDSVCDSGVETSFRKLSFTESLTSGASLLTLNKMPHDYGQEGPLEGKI
Chain of Nuclear factor NF-kappa-B complex (Homo sapiens) (Q00653 whole entry, looked up): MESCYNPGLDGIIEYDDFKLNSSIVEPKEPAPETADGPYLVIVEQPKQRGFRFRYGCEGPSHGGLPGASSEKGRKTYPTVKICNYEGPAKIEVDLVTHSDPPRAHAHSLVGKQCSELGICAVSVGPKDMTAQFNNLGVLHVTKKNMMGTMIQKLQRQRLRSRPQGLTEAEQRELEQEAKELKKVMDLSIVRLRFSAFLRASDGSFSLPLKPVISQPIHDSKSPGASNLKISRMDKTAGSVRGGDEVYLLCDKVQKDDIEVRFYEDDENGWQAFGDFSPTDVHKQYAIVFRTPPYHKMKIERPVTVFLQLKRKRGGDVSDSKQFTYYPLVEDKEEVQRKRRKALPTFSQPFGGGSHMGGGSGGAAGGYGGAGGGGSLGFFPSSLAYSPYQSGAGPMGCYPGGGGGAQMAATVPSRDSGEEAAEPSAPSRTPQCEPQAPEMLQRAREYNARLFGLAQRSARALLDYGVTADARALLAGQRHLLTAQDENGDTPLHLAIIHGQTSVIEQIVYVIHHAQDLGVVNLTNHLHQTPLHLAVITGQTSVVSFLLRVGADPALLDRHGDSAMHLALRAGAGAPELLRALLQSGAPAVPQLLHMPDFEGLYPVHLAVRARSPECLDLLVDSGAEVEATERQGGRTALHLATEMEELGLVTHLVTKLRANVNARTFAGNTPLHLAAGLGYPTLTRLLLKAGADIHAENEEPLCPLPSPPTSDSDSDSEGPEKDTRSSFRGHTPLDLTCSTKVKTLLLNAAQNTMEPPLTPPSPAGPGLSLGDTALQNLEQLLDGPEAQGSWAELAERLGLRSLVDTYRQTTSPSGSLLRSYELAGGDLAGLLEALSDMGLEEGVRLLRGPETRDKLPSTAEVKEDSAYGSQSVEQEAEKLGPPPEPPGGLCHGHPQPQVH
Chain of Nuclear factor NF-kappa-B complex (Homo sapiens) (Q04206 whole entry, looked up): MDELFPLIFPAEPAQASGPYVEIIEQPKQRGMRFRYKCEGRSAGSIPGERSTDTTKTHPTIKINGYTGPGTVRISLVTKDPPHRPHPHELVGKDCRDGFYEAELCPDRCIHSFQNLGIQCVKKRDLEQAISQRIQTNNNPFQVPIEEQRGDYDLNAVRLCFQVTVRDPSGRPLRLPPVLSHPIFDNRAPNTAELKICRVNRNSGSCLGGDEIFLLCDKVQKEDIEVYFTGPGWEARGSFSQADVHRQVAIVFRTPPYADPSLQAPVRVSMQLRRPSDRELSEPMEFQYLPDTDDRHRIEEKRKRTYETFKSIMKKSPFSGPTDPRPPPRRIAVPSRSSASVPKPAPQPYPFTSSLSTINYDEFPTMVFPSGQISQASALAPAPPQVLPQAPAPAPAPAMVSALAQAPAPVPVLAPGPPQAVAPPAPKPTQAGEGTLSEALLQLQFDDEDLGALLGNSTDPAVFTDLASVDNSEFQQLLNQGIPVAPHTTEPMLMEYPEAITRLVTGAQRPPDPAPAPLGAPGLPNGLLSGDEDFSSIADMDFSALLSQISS

The IC50 is the point on the concentration scale where inhibition reaches its midpoint. As to `C=C(C)[C@H]1CC[C@@](C)(O)[C@@H](C2=C(O)C(CC=C(C)C)(CC=C(C)C)C(=O)C(C(=O)c3ccccc3)=C2O)C1`, the result in the data set on HCT-116 [1] was Active. For the same compound, the IC50 with HCT-116 [2] was 3670 nM. The IC50 at 48 h in data set [3] turned out to be 24 µM. For the compound `C=C(C)[C@H]1CC[C@@]2(C)OC3=C(CC12)C(O)=C(C(=O)C(C)CC)C(=O)C3(C)CC=C(C)C` (some centres undefined), the result in the data set on HCT-116 [1] was Active.

As for `C=C(C)[C@@H]1CC[C@@]2(C)OC3=C(CC12)C(O)=C(C(=O)C(C)C)C(=O)C3(C)CC=C(C)C` (some centres undefined), the result in the data set on HCT-116 [1] was Active. As for `C=C(C)[C@@H]1CC[C@@](C)(O)[C@H]1CC1=C2O[C@H](C(C)(C)O)C[C@]2(C)C(=O)C(C(=O)C(C)CC)=C1O` (some centres undefined), the outcome in the data set on HCT-116 [1] was Active. As for `C=C(C)[C@@H]1CC[C@@](C)(O)[C@H]1CC1=C(O)C(CC=C(C)C)(CC=C(C)C)C(=O)C(C(=O)c2ccccc2)=C1O`, in the data set with HCT-116 [1], the result was Active. Consider `COC[C@@H]1C2=C(O)C(CC=C(C)C)(CC=C(C)C)C(=O)C(C(=O)C(C)C)=C2OC1(C)C`, for which the result with HCT-116 [1] was Active. Turning to `C=C(C)[C@@H]1CC[C@@](C)(O)[C@H]1CC1=C2O[C@H](C(C)(C)O)C[C@]2(CC=C(C)C)C(=O)C(C(=O)c2ccccc2)=C1O`, in the data set on HCT-116 [1], the outcome was Active. For `CC(C)=CCC1(C)C(=O)C(C(=O)C(C)C)=C(O)C([C@@H]2C[C@H]3CC[C@]2(C)OC3(C)C)=C1O` (some centres undefined), the result with HCT-116 [1] was Active. With `CCC(C)C(=O)C1=C(O)C2=C(OC(C)(C)C3CC[C@@](C)(O)[C@H]3C2)[C@](C)(CC=C(C)C)C1=O` (some centres undefined), the outcome in the data set with HCT-116 [1] was Active. In the case of `C=C(C)[C@@H]1CC[C@@]2(C)OC3=C(CC12)C(O)=C(C(=O)c1ccccc1)C(=O)C3(CC=C(C)C)CC=C(C)C` (some centres undefined), the result in the data set on HCT-116 [1] was Active. Turning to `C=C(C)[C@H]1CC[C@@](C)(O)[C@@H](C2=C(O)C(CC=C(C)C)(CC=C(C)C)C(=O)C(C(=O)C(C)C)=C2O)C1`, the inhibition result in data set [4] was “inactive”. For `C=C(C)[C@@H]1CC[C@@](C)(O)[C@H]1CC1=C2O[C@H](C(C)(C)O)C[C@]2(CC=C(C)C)C(=O)C(C(=O)C(C)C)=C1O`, the result in the data set with HCT-116 [1] was Active. For `O=c1[nH]cc(F)c(=O)[nH]1`, the result in the data set on HCT-116 [5], in the data set on HCT-116 [6], in the data set on HCT-116 [7] and with HCT-116 [8] was Active.

`C=C(C)[C@@H]1CC[C@@](C)(O)[C@H]1CC1=C(O)C(CC=C(C)C)(CC=C(C)C)C(=O)C(C(=O)C(C)CC)=C1O` (some centres undefined): in the data set with HCT-116 [1], the outcome was Active. Also, in the data set on HCT-116 [2], the IC50 came to 2460 nM. For the same compound, in data set [3], the IC50 at 48 h turned out to be 10 µM.

For the compound `CC(C)=CC[C@]1(C)C(=O)C(C(=O)C(C)C)=C(O)C2=C1O[C@]1(C)CC[C@]3(C(C)C)O[C@]13[C@H]2O`, in the data set on HCT-116 [1], the outcome was Active. As to `CC(C)=CCC1(CC=C(C)C)C(=O)C(C(=O)C(C)C)=C(O)C2=C1O[C@]1(C)CCC3(C(C)C)OC31[C@H]2O` (some centres undefined), in the data set on HCT-116 [1], the outcome was Active. For `CC(C)=CCC1(CC=C(C)C)C(=O)C(C(=O)c2ccccc2)=C(O)C([C@@H]2C[C@H]3CC[C@]2(C)OC3(C)C)=C1O`, the result in the data set with HCT-116 [1] was Active. For `CC(C)=CC[C@@]1(C)C(=O)C(C(=O)C(C)C)=C(O)C([C@H]2C[C@]3(C(C)(C)O)CC[C@@]2(C)O3)=C1O`, in the data set on HCT-116 [1], the outcome was Active. Consider `C=C(C)[C@@H]1CC[C@@](C)(O)[C@H]1CC1=C(O)C(C)(CC=C(C)C)C(=O)C(C(=O)C(C)CC)=C1O` (some centres undefined), for which the result in the data set with HCT-116 [1] was Active. Further, in the data set with HCT-116 [2], the IC50 stood at 5630 nM. The IC50 at 48 h in data set [3] was over 100 µM. `C=C(C)[C@H]1CC[C@@](C)(O)[C@@H](C2=C(O)[C@@](C)(CC=C(C)C)C(=O)C(C(=O)C(C)CC)=C2O)C1` (some centres undefined): the result in the data set with HCT-116 [1] was Active. Besides, the IC50 in the data set with HCT-116 [2] came to 2320 nM. The IC50 at 48 h in data set [3] was determined as 19.6 µM. On to `CCC(C)C(=O)C1=C(O)C2=C(OC(C)(C)[C@@H]3CC[C@@](C)(O)[C@@H]3C2)[C@](C)(CC=C(C)C)C1=O` (some centres undefined), for which the result in the data set on HCT-116 [1] was Active. With `CC(C)=CCC1(CC=C(C)C)C(=O)/C(=C(/O)c2ccccc2)C2=C(C1O)[C@H]1C=C(C(C)C)CC[C@@]1(C)O2` (some centres undefined), in the data set on HCT-116 [1], the result was Active.

On to `CC(C)=CC[C@@]12C[C@@H](C(C)(C)O)OC1=C(CC1[C@H]3CC[C@]1(C)OC3(C)C)C(O)=C(C(=O)C(C)C)C2=O` (some centres undefined), for which the result with HCT-116 [1] was Active. For the compound `CC(C)=CCC1(CC=C(C)C)C(=O)C(C(=O)c2ccccc2)=C(O)C([C@H]2C=C(C(C)C)CC[C@@]2(C)O)=C1O`, the outcome in the data set on HCT-116 [1] was Active. Consider `C=C(C)[C@H]1CC[C@@](C)(O)[C@@H](C2=C(O)[C@](C)(CC=C(C)C)C(=O)C(C(=O)C(C)C)=C2O)C1`, for which the result in the data set on HCT-116 [1] was Active. Also, the IC50 in the data set on HCT-116 [2] came to 2630 nM. Further, the IC50 at 48 h in data set [3] worked out at 14.4 µM.

Turning to `CC(C)=CC[C@@]1(C)C(=O)C(C(=O)C(C)C)=C(O)C2=C1O[C@]1(C)CC[C@@]3(C(C)C)O[C@@]13[C@H]2O`, the result with HCT-116 [1] was Active. Turning to `CC(C)=CC[C@@]12C(=O)C(C(=O)C(C)C)=C(O)C(C)=C1O[C@]1(C)CCC(C(C)C)=C[C@H]21`, in the data set with HCT-116 [1], the result was Active. Regarding `CC(C)=CC[C@]1(C)C(=O)C(C(=O)C(C)C)=C(O)C2=C1OC(C)(C)C1CC[C@@](C)(O)[C@H]1C2` (some centres undefined), the outcome with HCT-116 [1] was Active. As for `CC(C)=CCC1(CC=C(C)C)C(=O)C(C(=O)C(C)C)=C(O)C2=C1OC(C)(C)[C@@H]1CC[C@@](C)(O)[C@@H]1C2`, in the data set on HCT-116 [1], the result was Active.

Regarding `C=C(C)[C@@H]1CC[C@](C)(O)[C@H]1CC1=C2O[C@H](C(C)(C)O)C[C@]2(CC=C(C)C)C(=O)C(C(=O)c2ccccc2)=C1O`, the result with HCT-116 [1] was Active. The same measure, in the same setting: in the case of `CC(C)=CCC1(CC=C(C)C)C(=O)C(C(=O)C(C)C)=C(O)C([C@H]2C[C@]3(C(C)(C)O)CC[C@@]2(C)O3)=C1O` it was “Active”.
